Read-outs that look alike come from different tables or passages of the source.
Key:
[1] = in humans; cited from earlier work
[2] = Biodistribution in tissues 72 h after oral gavage; type: in vivo, mice; details: for Kp at 72 h / concentration at 72 h: BALB/c (Compound 19), NMRI (miltefosine), mouse; for Kp at 72 h: 72 h after 20 mg/kg oral gavage
Description: Blood samples were collected from the tail vein at 0, 0.5, 0.75, 1, 3, 24 and 72 hours into heparinized tubes. Moreover, biodistribution of the molecule, 72h after administration, was determined in several organs of the treated mice, namely brain, liver, spleen, kidney, heart and bone marrow. […] J Chromatogr B, 865: 55-62) by liquid chromatography mass spectrometry (LC-MS/MS).

[3] = tested on: L. infantum axenic amastigotes expressing luciferase; test: In vivo model of infection with L. infantum axenic amastigotes expressing luciferase; details: ten consecutive oral treatments with 10 mg/kg, 2 weeks after last treatment
Description: FIG. 4 illustrates the in vivo activity of compounds 18 and 19 in a model of infection with L. infantum axenic amastigotes expressing luciferase (10 consecutive treatments with 10 mg/kg of each compound, evaluated by limiting dilution assay 2 weeks after the last treatment).
In vivo activity of compounds 18 and 19 (ten consecutive oral treatments with 10 mg/kg of each compound, followed by a break of 2 weeks after last treatment), was studied in a model of infection with axenic amastigotes expressing luciferase, essentially as described in (Mendes Costa D. et al, J. Sci Rep. 2019 Dec. 12; 9(1):18989; Tavares J. et al., Methods Mol Biol. 2019; 1971:289-301). (FIG. 4).

hERG channel = hERG channel (Homo sapiens, UniProt Q12809); test: Early toxicity: hERG inhibition
Human plasma stability = type: in vitro ADME; details: samples at 0, 15, 30, 45, 60, 120 minutes
Description: Furthermore, compound 19 is stable in human hepatic microsomes (samples were taken at 0, 5, 15, 30, 45 minutes) (Table 8), while the human plasma stability is 99.7% (samples were taken at 0, 15, 30, 45, 60, 120 minutes).

[4] = tested on: Salmonella TA100 (base pair substitutions); test: Ames mutagenicity testing, TA100; type: cell-based
Description: The test has been performed in duplicate as separate experiments (Table 9). Two different Salmonella strains were tested; TA98 (frameshift mutations) and TA100 (base pair substitutions, primarily at one of the GC pairs). Values above 15 represent genotoxicity.

Chain of hERG channel (Q12809 whole entry): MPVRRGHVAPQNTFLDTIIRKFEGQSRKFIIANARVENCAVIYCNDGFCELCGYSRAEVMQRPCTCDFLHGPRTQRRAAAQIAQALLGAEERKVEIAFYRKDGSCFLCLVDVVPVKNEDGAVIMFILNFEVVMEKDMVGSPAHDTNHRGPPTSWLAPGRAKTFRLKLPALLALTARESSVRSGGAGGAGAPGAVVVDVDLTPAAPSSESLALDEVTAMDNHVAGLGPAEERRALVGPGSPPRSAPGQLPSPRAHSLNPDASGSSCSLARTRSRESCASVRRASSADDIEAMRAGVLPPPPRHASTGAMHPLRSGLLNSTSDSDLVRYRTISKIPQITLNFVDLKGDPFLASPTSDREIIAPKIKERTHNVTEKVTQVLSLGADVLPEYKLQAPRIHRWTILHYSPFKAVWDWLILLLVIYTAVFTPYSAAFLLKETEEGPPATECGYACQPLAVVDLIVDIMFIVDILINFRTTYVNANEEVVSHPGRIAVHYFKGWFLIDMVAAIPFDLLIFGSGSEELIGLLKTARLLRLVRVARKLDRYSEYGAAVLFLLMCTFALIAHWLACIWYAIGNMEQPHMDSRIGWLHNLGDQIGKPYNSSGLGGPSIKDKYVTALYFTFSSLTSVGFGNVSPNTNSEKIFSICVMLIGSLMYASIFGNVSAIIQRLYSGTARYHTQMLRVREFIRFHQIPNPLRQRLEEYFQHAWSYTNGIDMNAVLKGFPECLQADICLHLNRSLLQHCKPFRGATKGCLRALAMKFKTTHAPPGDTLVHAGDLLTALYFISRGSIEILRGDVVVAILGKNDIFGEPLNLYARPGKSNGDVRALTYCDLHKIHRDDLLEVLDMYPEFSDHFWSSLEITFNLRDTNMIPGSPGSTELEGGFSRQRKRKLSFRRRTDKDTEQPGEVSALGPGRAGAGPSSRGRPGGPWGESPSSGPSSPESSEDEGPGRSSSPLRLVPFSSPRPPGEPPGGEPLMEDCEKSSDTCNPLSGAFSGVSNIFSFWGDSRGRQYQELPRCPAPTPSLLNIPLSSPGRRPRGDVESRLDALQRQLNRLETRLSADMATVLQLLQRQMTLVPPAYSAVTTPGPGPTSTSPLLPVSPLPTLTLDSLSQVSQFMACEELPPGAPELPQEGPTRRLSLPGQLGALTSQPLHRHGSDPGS

CCCCCCCCCCCCCCCCOP(=O)([O-])OCC[N+](C)(C)C [Miltefosine, hexadecylphosphocholine, reference compound]
half-life [1]: 100 to 200 h

C[N+](C)(C)CCOP(=O)([O-])OCCCCCC1CCCCCCCCCCCCCC1 [Compound 19, 5-cyclopentadecylpentyl (2-(trimethylammonio)ethyl) phosphate]
times less concentration in plasma than miltefosine ([2]; 72 hours after 20 mg/kg oral gavage): 6.5 times
Kp at 72 h ([2]; bone marrow, read-out: Tissue/Plasma ratio Bone marrow): 0.09
concentration at 72 h ([2]; bone marrow, 72 hours after 20 mg/kg oral gavage, read-out: Bone marrow): 200 ng/g
Kp at 72 h ([2]; brain, read-out: Tissue/Plasma ratio Brain): 0.248
concentration at 72 h ([2]; brain, 72 hours after 20 mg/kg oral gavage, read-out: Brain): 540 ± 610 ng/g
Kp at 72 h ([2]; heart, read-out: Tissue/Plasma ratio Heart): 0.55
concentration at 72 h ([2]; heart, 72 hours after 20 mg/kg oral gavage, read-out: Heart): 1200 ± 900 ng/g
Kp at 72 h ([2]; kidney, read-out: Tissue/Plasma ratio Kidney): 18.9
concentration at 72 h ([2]; kidney, 72 hours after 20 mg/kg oral gavage, read-out: Kidney): 41100 ± 15800 ng/g
Kp at 72 h ([2]; liver, read-out: Tissue/Plasma ratio Liver): 5.36
concentration at 72 h ([2]; liver, 72 hours after 20 mg/kg oral gavage, read-out: Liver): 11600 ± 880 ng/g
concentration at 72 h ([2]; plasma, 72 hours after 20 mg/kg oral gavage, read-out: Plasma): 2170 ± 550 ng/mL
Kp at 72 h ([2]; spleen, read-out: Tissue/Plasma ratio Spleen): 1.06
concentration at 72 h ([2]; spleen, 72 hours after 20 mg/kg oral gavage, read-out: Spleen): 2310 ± 710 ng/g
parasites in the bone marrow [3]: under the detection limit
Flag for Interference, hERG (hERG channel; Table 4b): (no)
inhibition at 10 µM (hERG channel; human): 4.06 ± 2.07%
Human plasma Metabolic stability (%) (Human plasma stability): 99.7%
Ames mutagenicity TA100 (values above 15 represent genotoxicity) ([4]; 3.125 μM): 7.5 ± 0.71
Ames mutagenicity TA100 (values above 15 represent genotoxicity) ([4]; 6.25 μM): 9.0 ± 0
Ames mutagenicity TA100 (values above 15 represent genotoxicity) ([4]; 12.5 μM): 14.0 ± 1.41
Ames mutagenicity TA100 (values above 15 represent genotoxicity) ([4]; 25 μM): 7.0 ± 2.83
Ames mutagenicity TA100 (values above 15 represent genotoxicity) ([4]; 50 μM): 10.0 ± 0
Ames mutagenicity TA100 (values above 15 represent genotoxicity) ([4]; 100 μM): 8.5 ± 4.95
mutagenicity, TA100 ([4]; up to 100 μM): does not exhibit mutagenicity
